Experimental data reported in publication PMC8274517, “Diaryl azo derivatives as anti-diabetic and antimicrobial agents: synthesis, in vitro, kinetic and docking studies” (Journal of Enzyme Inhibition and Medicinal Chemistry, 2021).

Legend:
α-glucosidase = assay: In vitro α-glucosidase inhibition assay (pNPG substrate); format: biochemical, Saccharomyces Cerevisiae
Description: The α-glucosidase inhibition assay was performed as described previously. In summary, the stock solution of the enzyme from Saccharomyces Cerevisiae (0.2 U/mL) was prepared in 0.05 M sodium phosphate buffer pH 6.8. […] After incubation, 10 µL of the substrate, p-nitrophenyl α-D-glucopyranoside (pNPG, 5 mM solution in 0.05 M phosphate buffer) was added to the aboveprepared mixture and incubated again under the same experimental conditions. The reaction was stopped with the addition of 0.1 M Na2CO3 and OD405 was taken by a 96-well ELISA reader. The experiment was performed in triplicate.

E. coli = assay: Antibacterial activity, minimum inhibitory concentration; format: cell-based; design: key: R: resistant; S: sensitive
Description: (§1) The prepared azo derivatives were screened for their antibacterial activity against six bacterial strains obtained from hospital isolates i.e. gram positive (S. aureus, S. aureus (DR)) and gram-negative (E. coli, P. aeruginosa, P. aeruginosa (DR), P. vulgaris). All the strains were confirmed by biochemical identification and drug susceptibility methods. The antibacterial evaluation was done by agar disc diffusion method[39]^,[40] and MIC was determined. In summary, a 48-h old inoculum having ∼0.48 OD600, of the above-mentioned bacterial strains was spread on the solidified trypticase soy agar media and Whatman no. 1 filter paper discs (5 mm in diameter) soaked with the title compounds (10 µL/disc of 10 mg/mL) were placed on the plates. Ampicillin and moxifloxacin were used as positive controls and DMSO as negative control respectively.

P. aeruginosa (DR) = assay: as above; format: cell-based; design: key: R: resistant; S: sensitive
Description: as §1

P. aeruginosa (DS) = assay: as above; format: cell-based; design: key: R: resistant; S: sensitive
Description: as §1

P. vulgaris = assay: as above; format: cell-based; design: key: R: resistant; S: sensitive
Description: as §1

S. aureus (DR) = assay: as above; format: cell-based; design: key: R: resistant; S: sensitive
Description: as §1

S. aureus (DS) = assay: as above; format: cell-based; design: key: R: resistant; S: sensitive
Description: as §1

[1] = tested on: screened pathogens (S. aureus, P. aeruginosa, E. coli and P. vulgaris); assay: Antibacterial activity, average MIC over screened pathogens; format: cell-based
Description: as §1, with “All the strains were confirmed by biochemical identification and drug susceptibility methods.” left out, “plates.” for “plates. Ampicillin and moxifloxacin were used as positive controls and DMSO as negative control respectively.”

| Molecule | % Inhibition (α-glucosidase; 15.62 µg/mL) | % Inhibition (α-glucosidase; 31.2 µg/mL) | % Inhibition (α-glucosidase; 125 µg/mL) | % Inhibition (α-glucosidase; 250 µg/mL) | IC50 (α-glucosidase; means ± SEM of triplicate) | Minimum inhibitory concentration: sensitive/resistant (E. coli; 125 µg/200 µL) | Minimum inhibitory concentration: sensitive/resistant (E. coli; 250 µg/200 µL) | Minimum inhibitory concentration: sensitive/resistant (P. aeruginosa (DR); 125 µg/200 µL) | Minimum inhibitory concentration: sensitive/resistant (P. aeruginosa (DR); 250 µg/200 µL) | Minimum inhibitory concentration: sensitive/resistant (P. aeruginosa (DS); 125 µg/200 µL) | Minimum inhibitory concentration: sensitive/resistant (P. aeruginosa (DS); 250 µg/200 µL) | Minimum inhibitory concentration: sensitive/resistant (P. vulgaris; 125 µg/200 µL) | Minimum inhibitory concentration: sensitive/resistant (P. vulgaris; 250 µg/200 µL) | Minimum inhibitory concentration: sensitive/resistant (S. aureus (DR); 125 µg/200 µL) | Minimum inhibitory concentration: sensitive/resistant (S. aureus (DR); 250 µg/200 µL) | Minimum inhibitory concentration: sensitive/resistant (S. aureus (DS); 125 µg/200 µL) | Minimum inhibitory concentration: sensitive/resistant (S. aureus (DS); 250 µg/200 µL) | MIC (average value) [1] |
| --- | --- | --- | --- | --- | --- | --- | --- | --- | --- | --- | --- | --- | --- | --- | --- | --- | --- | --- |
| 4-((2-chloropyridin-3-yl)diazenyl)naphthalen-2-ol [TR-9] | 22% | 39% | 63% | 78% | 54.4 ± 3.3 µg/mL | R | R | R | R | R | S | R | R | S | S | R | R | – |
| C[C@H]1O[C@H](O[C@H]2[C@H](O)[C@@H](O)[C@@H](O[C@H]3[C@H](O)[C@@H](O)C(O)O[C@@H]3CO)O[C@@H]2CO)[C@H](O)[C@@H](O)[C@@H]1N[C@H]1C=C(CO)[C@@H](O)[C@H](O)[C@H]1O (stereo partly shown) [Acarbose, reference compound] | 40% | 62% | 85% | 92% | – | – | – | – | – | – | – | – | – | – | – | – | – | – |
| CC1(C)S[C@@H]2[C@H](NC(=O)[C@H](N)c3ccccc3)C(=O)N2[C@H]1C(=O)O [Ampicillin, reference compound] | – | – | – | – | – | S | S | – | – | S | S | S | S | – | – | S | S | 62.5 µg/200 µL |
| COc1c(N2C[C@@H]3CCCN[C@@H]3C2)c(F)cc2c(=O)c(C(=O)O)cn(C3CC3)c12 [Moxifloxacin, reference compound] | – | – | – | – | – | – | – | S | S | – | – | – | – | S | S | – | – | – |
